Data as given in patent EP0218400A1, “Assay methods for chemotherapeutic agents” (DAMON BIOTECH, INC., priority 1985, dated 1987).

Assays:
[1] = test system: MOLT-4 human lymphoma cells; test: In vivo sensitivity of encapsulated MOLT-4 cells in nude mice, NCI schedule; settings: Adriamycin 6 mg/kg, 15 days after transplantation
Description: (§1) In the experiments that follow, the drugs and other agents tested were administered to the host animal by injection at the various times called for in the protocol being tested. At various periods after treatment, the mice were killed by cervical dislocation. The peritoneal cavity of each mouse was washed with PBS or medium and floating microcapsules were aspirated using a large bore plastic Pasteur pipette. Microcapsules were transferred to 15 ml tubes and washed 3 to 4 times with PBS to remove host peritoneal cells. The washed microcapsules were aspirated into 1 ml serological pipettes, allowed to sediment, and the volume of packed microcapsules was determined. Microcapsules were then transferred to a glas dounce homogenizer (7 ml volume) and disrupted with 3 strokes of an A-tolerance plumger. Cells suspensions were filtered through nylon mesh to remove the disrupted membranes. The suspensions containing tumor cells were centrifuged and the pellet was resuspended in 0.25 to 0.5 ml of complete medium. After mixing equal volumes of cell suspension and trypan blue, viable cell counts were determined using a hemocytometer.
(§2) The number of tumor cells per 1 ml of packed microcapsules was determined as follows: a = ? where b = total number of tumor cells in the suspension, and c = total volume of microcapsules used for the preparation of this suspension.
(§3) By comparing the number of tumor cells in 1 ml of microcapsules derived from non-treated and drug-treated mice, the percent inhibition of tumor cell growth was calculated: [formula] where ac = number of tumor cells from the non-treated control microcapsules, and ae = number of tumor cells from the drug treated microcapsules.
In the next experiment various drugs were administered in vivo according to schedules and doses typically used for screening antitumor effects of the drugs at the National Cancer Institute, Developmental Therapeutics program.
MOLT-4 human lymphoma cells were encapsulated and transplanted into peritoneum of nude mice. Doses of various drugs were applied i.v. at 1, 5 and 9 days after tumor cell transplantation.

[2] = test system: human lung carcinoma A549 cells; test: In vivo susceptibility of encapsulated A549 cells; settings: i.v. days 2, 5, 9; for No. of tumor cells per 1 ml of capsules / percent Inhibition: Adriamycin 6, BCNU 20, CY 100 mg/kg
Description: as §1, §2, §3
The sensitivity of human lung carcinoma A549 cells to the drugs was assessed 12 and 14 days after transplantation of encapsulated tumor cells. The treatments were applied i.v. 2, 5 and 9 days after microcapsule transplantation (Table 5).

P388 Resistant Cells = test: In vivo growth of encapsulated adriamycin-resistant P388 lymphoma cells in nude mice
Description: as §1, §2, §3
Since drug-resistance is one of the most important causes of failure in chemotherapy, it is crucial that a predictive assay be able to distinguish between effective and non-effective drugs for particular tumors. […] One day later the mice received by i.v. administration Adriamycin (6 mg/kg), Vinblastin (1 mg/kg) or Cyclophosphamide (100 mg/kg). Five days after administration some of the mice were sacrificed, the microcapsules were recovered and the numbers of tumor cells inside the capsules were determined. The remaining mice received a second administration and the microcapsules were recovered from the remaining mice 3 days afterwards. The results are shown in Table 7 and correlate well with the known characteristics of P388 cell line and its variant.

COc1cccc2c1C(=O)c1c(O)c3c(c(O)c1C2=O)C[C@@](O)(C(=O)CO)C[C@@H]3O[C@H]1C[C@H](N)[C@H](O)[C@H](C)O1 [Adriamycin]
inhibition of tumor cell proliferation (in words) ([1]; 5-FU 60 mg/kg i.v. days 1, 5, 9): dramatic inhibition of tumor cell proliferation | inhibition at 6 mg/kg ([1]; Mus musculus, MOLT-4, iv, 360 h, i.v. days 1, 5, 9, Cyclophosphamide 100 mg/kg, 5-Fu 60 mg/kg, nude mice): 95% | No of viable tumor cells per 1 ml of capsules ([1]; i.v. days 1, 5, 9, Cyclophosphamide 100 mg/kg, 5-Fu 60 mg/kg, nude mice): 2.7 x 10^6 | No. of tumor cells per 1 ml of capsules ([2]; 12 days after transplantation): 9.0 x 10^5 | percent Inhibition ([2]; 12 days after transplantation): 85% | No. of tumor cells per 1 ml of capsules ([2]; 14 days after transplantation): 13.5 x 10^5 | percent Inhibition ([2]; 14 days after transplantation): 84% | reduction of the numbers of tumor cells (in words) [2]: more efficient in this respect than CY | No. cells/ml (P388 Resistant Cells; 5 + 3 days after treatment (3 days after second administration), Adriamycin 6, Vinblastin 1, Cyclophosphamide 100 mg/kg i.v.): 32 x 10^6 | No. cells/ml (P388 Resistant Cells; 5 days after treatment, i.v. one day after inoculation, Adriamycin 6, Vinblastin 1, Cyclophosphamide 100 mg/kg): 18 x 10^6 | inhibiting the growth of the drug-resistant variant (in words) (P388 Resistant Cells; Adriamycin 6 mg/kg, Vinblastin 1 mg/kg i.v.): Neither Adriamycin nor Vinblastin in the doses administered was effective
